Literature values, collected in patent publication US20260240991A1, “METHODS OF HEMATOPOIETIC PRECURSOR CELLS MOBILIZATION” (BioLineRx Ltd., priority 2023, published 2026).
Where two headings read alike, the source gives them in different places. Bridges are numbered along the chain shown (N, C = ends). [ ]: non-standard residue; d: D form. The star is where a group is joined. 2Nal = N[C@@H](Cc1ccc2ccccc2c1)C(=O)O; Benzoyl(4-F) = O=C(c1ccc(F)cc1)*; Cit = NC(=O)NCCC[C@H](N)C(=O)O

Columns and labels:
[1] = system: PB CD34+ cells
[2] = system: PB progenitor cells; details: mice
[3] = system: CD34+ cells; details: patients with MS
[4] = system: circulating CD34+ cells

Substance	tolerability ([1]; human, in vivo)	number of apheresis sessions required ([1]; myeloma patients, 900 μg/kg)	effect on mean absolute PB CD34+ cells ([1]; myeloma patients, dose escalation)	mean PB CD34+ count ([1]; myeloma patients, highest dose tested 900 μg/kg) [kg⁻¹]	number of apheresis sessions required ([1]; myeloma patients, lower doses)	increase in PB progenitor cells ([2]; agent alone) [fold]	time of peak of PB progenitor cell increase following administration of the dose ([2]; agent alone) [h]	PB progenitor cell increase compared with Plerixafor and G-CSF ([2]; combined with G-CSF)	increase in PB progenitor cells over controls ([2]; combined with G-CSF) [fold]	increase in PB CD34+ cells [3] [fold]	time of maximum absolute CD34+ count following treatment [3] [days]	increase in BM CD34+ cells ([3]; dose-dependent) [fold]	maximal concentration of circulating CD34+ cells ([4]; MS patients, 72 hours following administration) [CD34+ cells/μL]	persistence of elevation in PB CD34+ cells following administration ([4]; Zohren and Bonig)
4F-benzoyl-Arg-Arg-Nal-Cys-Tyr-Cit-Lys-DLys-Pro-Tyr-Arg-Cit-Cys-Arg-NH2 ({Benzoyl(4-F)}-RR[2Nal]CY[Cit]K[dK]PYR[Cit]CR-NH2; disulfide 4-13 (inferred)) [Motixafortide]	well-tolerated	1	dose-dependent increase	2.06e+07	2.25	≤ 10	1 to 2	higher than seen with a combination of Plerixafor and G-CSF	78					
Natalizumab: recombinant humanized monoclonal antibody against d4 subunit of VLA-4										7	4	7	10.4	at least 1 month
